The source of these data is PubChem BioAssay (NCI).

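Test compounds were applied to cells in 96-well plates for 48 hours at 5 doses. The concentration for full growth arrest is given as TGI.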 A value given as a limit tells only on which side of the number the result lay.

Among the test systems are SF-539 CNS; SK-MEL-28 melanoma; HT29 colon; DMS 273 small cell lung; SNB-19 CNS; UACC-62 melanoma; UO-31 renal; SNB-75 CNS; HOP-92 NSCLC; A498 renal; DMS 114 small cell lung; SW-620 colon; NCI-H522 lung; CCRF-CEM leukemia; SK-OV-3 ovarian; DLD-1 colon; SF-268 CNS; CAKI-1 renal; M14 melanoma; TK-10 renal.
What all share (assay): NCI-60 cell line screen, 48 h

With `Cc1cc(N=Nc2ccc(N=Nc3c(O)c(S(=O)(=O)O)cc4cc(S(=O)(=O)O)ccc34)cc2C)ccc1N=Nc1ccc2cc(S(=O)(=O)O)cc(S(=O)(=O)O)c2c1`, the TGI in the assay with SF-539 CNS was over 100 µM; with SK-MEL-28 melanoma, over 100 µM; with HT29 colon it was over 31.6 µM; in the assay with DMS 273 small cell lung, over 100 µM; in the assay with SNB-19 CNS, over 100 µM; in the assay with UACC-62 melanoma it was over 100 µM. The TGI in the assay on UO-31 renal, in the assay with SNB-75 CNS, in the assay on HOP-92 NSCLC, in the assay with A498 renal, in the assay on DMS 114 small cell lung and in the assay on SW-620 colon was over 100 µM in each case. In addition, the TGI in the assay with NCI-H522 lung, in the assay on CCRF-CEM leukemia, with SK-OV-3 ovarian, with DLD-1 colon and with SF-268 CNS was over 100 µM throughout.

In the case of `CC1=C2C(O)C(C(C)C(=O)NC(C)C)CCC2(C)C=CC1=O` (stereo not given), the TGI in the assay on SF-539 CNS, in the assay with CAKI-1 renal, in the assay on SK-MEL-28 melanoma, in the assay with HT29 colon, with DMS 273 small cell lung and with SNB-19 CNS was over 100 µM in each case. Further, the TGI in the assay on UACC-62 melanoma, in the assay on UO-31 renal, with SNB-75 CNS, with HOP-92 NSCLC, with A498 renal and in the assay with DMS 114 small cell lung was over 100 µM each time. Also, the TGI in the assay with SW-620 colon, in the assay on NCI-H522 lung, with CCRF-CEM leukemia, in the assay on SK-OV-3 ovarian, in the assay on DLD-1 colon and with SF-268 CNS was over 100 µM in each case.

Regarding `CC(C)(O)[C@H](CCO)O[Si](c1ccccc1)(c1ccccc1)C(C)(C)C`, the TGI is 27.3 µM in the assay on SF-539 CNS; 25.8 µM in the assay with M14 melanoma; 29 µM with SK-MEL-28 melanoma; 24.6 µM in the assay on HT29 colon; 24.2 µM in the assay with DMS 273 small cell lung; 19.5 µM in the assay with SNB-19 CNS. Besides, the TGI in the assay with TK-10 renal was found to be 25.9 µM; in the assay on UACC-62 melanoma, 24.1 µM; in the assay on UO-31 renal, 23 µM; in the assay on SNB-75 CNS it was 22.9 µM; in the assay on HOP-92 NSCLC, 23.5 µM; in the assay with A498 renal, 30.9 µM. Also, the TGI in the assay with SW-620 colon was found to be 26.8 µM; with NCI-H522 lung it was 20.1 µM; with CCRF-CEM leukemia, 32.2 µM; with SK-OV-3 ovarian, 24.5 µM; in the assay with DLD-1 colon it was 21 µM; in the assay on SF-268 CNS, 26.7 µM.

Regarding `COC(=O)NN1C(=O)C(=P(c2ccccc2)(c2ccccc2)c2ccccc2)C(C(=O)OC)=C1C`, the TGI in the assay with SF-539 CNS, in the assay on M14 melanoma, in the assay with CAKI-1 renal, with SK-MEL-28 melanoma, in the assay with HT29 colon and in the assay on DMS 273 small cell lung was over 100 µM throughout. Besides, the TGI in the assay with SNB-19 CNS is over 100 µM; with TK-10 renal, over 100 µM; with UACC-62 melanoma, over 100 µM; with UO-31 renal it was over 100 µM; in the assay with SNB-75 CNS, over 100 µM; in the assay with HOP-92 NSCLC it was 79.5 µM. Besides, the TGI in the assay on A498 renal, in the assay with DMS 114 small cell lung, in the assay with SW-620 colon, in the assay with NCI-H522 lung, in the assay with CCRF-CEM leukemia and in the assay on SK-OV-3 ovarian was over 100 µM throughout. Moreover, the TGI in the assay with SF-268 CNS is over 100 µM.

In the case of `Cn1c(=O)c2nc(N3CCCCC3)cnc2n(C)c1=O`, the TGI in the assay on SF-539 CNS, in the assay on M14 melanoma, in the assay with CAKI-1 renal, in the assay on SK-MEL-28 melanoma, with HT29 colon and with SNB-19 CNS was over 100 µM each time. Further, the TGI in the assay with TK-10 renal, in the assay on UACC-62 melanoma, with UO-31 renal, with SNB-75 CNS, with HOP-92 NSCLC and with A498 renal was over 100 µM each time. The TGI in the assay on SW-620 colon, with NCI-H522 lung, with CCRF-CEM leukemia, in the assay on SK-OV-3 ovarian, in the assay on DLD-1 colon and in the assay on SF-268 CNS was over 100 µM in each case.
